Earlier results as cited in article PMC2222665, “The dimerization domain of HIV-1 viral infectivity factor Vif is required to block virion incorporation of APOBEC3G” (Retrovirology, 2007).

System: HIV-1
Set-up: method as in PMID 1708976
Settings: ref [45],[46]

Cc1cn([C@H]2C[C@H](N=[N+]=[N-])[C@@H](CO)O2)c(=O)[nH]c1=O [AZT]
IC95 of HIV-1 infectivity: 5 µM
